Patent publication US9221810B2, “Substituted bicyclic aromatic compounds as S-nitrosoglutathione reductase inhibitors” (Nivalis Therapeutics, Inc., priority 2010, dated 2015)

What was measured:
[1] = tested on: mouse model of ovalbumin (OVA)-induced asthma; assay: Mouse model of ovalbumin (OVA)-induced asthma: MCh-induced AHR (Penh) and eosinophil infiltrate in BALF; type: in vivo; settings: single IV dose of 10 mg/kg at 24 h prior to assessment
Method: A mouse model of ovalbumin (OVA)-induced asthma was used to screen GSNOR inhibitors for efficacy against methacholine (MCh)-induced bronchoconstriction/airway hyper-responsiveness. This is a widely used and well characterized model that presents with an acute, allergic asthma phenotype with similarities to human asthma. Efficacy of GSNOR inhibitors was assessed using a protocol in which GSNOR inhibitors were administered after OVA sensitization and airway challenge, and prior to challenge with MCh. Bronchoconstriction in response to challenge with increasing doses of MCh was assessed using whole body plethysmography (Penh; Buxco). The amount of eosinophil infiltrate into the bronchoaveolar lavage fluid (BALF) was also determined as a measure of lung inflammation. The effects of GSNOR inhibitors were compared to vehicles and to Combivent (inhaled; IH) as the positive control.
OVA (500 μg/ml) in PBS was mixed with equal volumes of 10% (w/v) aluminum potassium sulfate in distilled water and incubated for 60 min. at room temperature after adjustment to pH 6.5 using 10 N NaOH. After centrifugation at 750×g for 5 min, the OVA/alum pellet was resuspended to the original volume in distilled water. Mice received an intraperitoneal (IP) injection of 100 μg OVA (0.2 mL of 500 μg/mL in normal saline) complexed with alum on day 0. Mice were anesthetized by IP injection of a 0.2-mL mixture of ketamine and xylazine (0.44 and 6.3 mg/mL, respectively) in normal saline and were placed on a board in the supine position. Two hundred fifty micrograms (100 μl of a 2.5 mg/ml) of OVA (on day 8) and 125 μg (50 μl of 2.5 mg/ml) OVA (on days 15, 18, and 21) were placed on the back of the tongue of each animal.
In vivo airway responsiveness to methacholine was measured 24 h after the last OVA challenge in conscious, freely moving, spontaneously breathing mice with whole body plethysmography using a Buxco chamber (Wilmington, N.C.). […] The degree of bronchoconstriction was expressed as enhanced pause (Penh), a calculated dimensionless value, which correlates with the measurement of airway resistance, impedance, and intrapleural pressure in the same mouse. Penh readings were taken and averaged for 4 min. after each nebulization challenge. Penh is calculated as follows: Penh=[(Te/Tr−1)×(PEF/PIF)], where Te is expiration time, Tr is relaxation time, PEF is peak expiratory flow, and PIF is peak inspiratory flow×0.67 coefficient. […]
After measurement of airway hyper-reactivity, the mice were exsanguinated by cardiac puncture, and then BALF was collected from either both lungs or from the right lung after tying off the left lung at the mainstem bronchus. Total BALF cells were counted from a 0.05 mL aliquot, and the remaining fluid was centrifuged at 200×g for 10 min at 4° C. […]

[2] = Mouse pharmacokinetic (PK) study; type: in vivo, male BALB/c mice; settings: male, BALB/c, plasma, po, 10 mg/kg, IV 2 mg/kg, read-out: oral bioavailability (% F)
Excerpt: The mouse was used to determine the pharmacokinetics of compounds of the invention. This species is widely used to assess the bioavailability of compounds by administering both oral (PO) and intravenous (IV) test articles. Efficacy of the compounds of the invention was compared by assessing plasma exposure in male BALB/c mice either via IV or PO administration at the times of peak activity.
Compounds of the invention were reconstituted in a phosphate buffered saline (PBS)/10% Solutol (HS 15) clear solution resulting in a concentration of 0.2 mg/mL and administered to mice (2 mg/kg) as a single IV dose. Animals were dosed via the lateral tail vein. Blood samples were collected at designated time points (0.083, 0.25, 0.5, 1, 2, 4, 8, 16, 24 hours) by cardiac puncture under isoflurane anesthesia (up to 1 mL blood per animal). The blood was collected into tubes containing Li-Heparin. The blood samples were kept on ice until centrifugation within approximately 30 minutes of collection. The plasma was transferred into labeled polypropylene tubes and frozen at −70° C. until analyzed by LC/MS/MS.
The compounds of the invention were reconstituted in 40% Propylene Glycol/40% Propylene Carbonate/20% of a 5% Sucrose clear solution resulting in a concentration of 2 mg/mL and administered to mice (10 mg/kg) as a single oral dose via gavage. Blood samples were collected at 0.25, 0.5, 1, 2, 4, 8, 12, 16, 20 and 24 hours post dose by cardiac puncture under isoflurane anesthesia. The blood was collected in tubes containing Li-Heparin. […] The plasma was transferred into labeled polypropylene tubes and frozen at −70° C. until analyzed by LC/MS/MS.
Plasma samples at each timepoint were analyzed using a LC-MS/MS with a lower limit of quantification (LLOQ) of 1 ng/mL. Plasma was analyzed to determine the amount of the compound of the invention in each sample and regression curves generated for each compounds of the invention in the relevant matrixes. […]
In addition to the above PK parameters, bioavailability (% F) was calculated.

## Oc1ccc2nc(-c3ccc(-c4nnn[nH]4)cc3)ccc2c1 [Example 4, 2-(4-(1H-tetrazol-5-yl)phenyl)quinolin-6-ol]
[1]
  decrease of eosinophil infiltration into BALF: 20 % of vehicle control
[1]; p<0.05
  decrease of MCh-induced AHR: 19 % of vehicle control
[2]
  bioavailability: > 9%
